Experimental data taken from the NIST ThermoML archive (doi:10.1021/je300827f).
± gives the expanded uncertainty stated by the source.

Assay: xn = mol fraction of the nth substance listed
Conditions: 101 kPa, Liquid; for viscosity: Capillary tube (Ostwald / Ubbelohde) method; for mass density: Vibrating tube method

OCCOCCO [diethylene glycol] + CC(C)O
Conditions | mass density, 298.15 K [kg/m3] | mass density, 303.15 K [kg/m3] | mass density, 308.15 K [kg/m3] | mass density, 313.15 K [kg/m3] | viscosity, 298.15 K [mPa·s] | viscosity, 303.15 K [mPa·s] | viscosity, 308.15 K [mPa·s] | viscosity, 313.15 K [mPa·s]
x1 = 0.0808 | 814.9 ± 0.2 | 810.2 ± 0.2 | 805.2 ± 0.2 | 800.5 ± 0.2 | 2.71 ± 0.11 | 2.54 ± 0.1 | 2.22 ± 0.09 | 1.9 ± 0.08
x1 = 0.1599 | 846.9 ± 0.2 | 841.8 ± 0.2 | 836.5 ± 0.2 | 831.7 ± 0.2 | 3.59 ± 0.15 | 3.38 ± 0.14 | 2.89 ± 0.12 | 2.52 ± 0.1
x1 = 0.2398 | 877.8 ± 0.2 | 872.4 ± 0.2 | 867 ± 0.2 | 862 ± 0.2 | 4.73 ± 0.19 | 4.35 ± 0.18 | 3.63 ± 0.15 | 3.25 ± 0.13
x1 = 0.3501 | 918.3 ± 0.2 | 912.7 ± 0.2 | 907.3 ± 0.2 | 902.2 ± 0.2 | 6.67 ± 0.27 | 5.93 ± 0.24 | 4.83 ± 0.2 | 4.41 ± 0.18
x1 = 0.4399 | 949.6 ± 0.2 | 943.9 ± 0.2 | 938.5 ± 0.2 | 933.4 ± 0.2 | 8.59 ± 0.35 | 7.44 ± 0.3 | 6 ± 0.24 | 5.49 ± 0.22
x1 = 0.5596 | 988.8 ± 0.2 | 983.3 ± 0.2 | 978.1 ± 0.2 | 973.1 ± 0.2 | 11.59 ± 0.47 | 9.8 ± 0.4 | 7.84 ± 0.32 | 7.09 ± 0.29
x1 = 0.6499 | 1016.8 ± 0.2 | 1011.5 ± 0.2 | 1006.4 ± 0.2 | 1001.4 ± 0.2 | 14.2 ± 0.57 | 11.84 ± 0.48 | 9.47 ± 0.38 | 8.44 ± 0.34
x1 = 0.7396 | 1043.2 ± 0.2 | 1038.2 ± 0.2 | 1033.4 ± 0.2 | 1028.8 ± 0.2 | 17.08 ± 0.69 | 14.1 ± 0.57 | 11.27 ± 0.46 | 9.89 ± 0.4
x1 = 0.8501 | 1073.9 ± 0.3 | 1069.5 ± 0.3 | 1065.2 ± 0.3 | 1061.1 ± 0.3 | 21.04 ± 0.85 | 17.19 ± 0.7 | 13.7 ± 0.55 | 11.84 ± 0.48
x1 = 0.9402 | 1097.4 ± 0.3 | 1093.8 ± 0.3 | 1089.8 ± 0.3 | 1086.2 ± 0.3 | 24.61 ± 1 | 19.94 ± 0.81 | 15.82 ± 0.64 | 13.58 ± 0.55
x1 = 1 | 1112.4 ± 0.3 | 1109.1 ± 0.3 | 1105.6 ± 0.3 | 1102.3 ± 0.3 | 27.15 ± 1.1 | 21.87 ± 0.89 | 17.26 ± 0.7 | 14.81 ± 0.6

OCCOCCO [diethylene glycol] + CCCCC(C)O
x1 = 1
Conditions | mass density [kg/m3] | viscosity [mPa·s]
298.15 K | 1112.4 ± 0.3 | 27.15 ± 1.1
303.15 K | 1109.1 ± 0.3 | 21.87 ± 0.89
308.15 K | 1105.6 ± 0.3 | 17.26 ± 0.7
313.15 K | 1102.3 ± 0.3 | 14.81 ± 0.6

OCCOCCO [diethylene glycol] + CCC(C)O
Conditions | mass density, 298.15 K [kg/m3] | mass density, 303.15 K [kg/m3] | mass density, 308.15 K [kg/m3] | mass density, 313.15 K [kg/m3] | viscosity, 298.15 K [mPa·s] | viscosity, 303.15 K [mPa·s] | viscosity, 308.15 K [mPa·s] | viscosity, 313.15 K [mPa·s]
x1 = 0.0808 | 829.4 ± 0.2 | 824.8 ± 0.2 | 819.9 ± 0.2 | 815.3 ± 0.2 | 3.69 ± 0.15 | – | – | –
x1 = 0.0833 | – | – | – | – | – | 3.1 ± 0.13 | 2.65 ± 0.11 | 2.22 ± 0.09
x1 = 0.1598 | 855.3 ± 0.2 | 850.5 ± 0.2 | 845.5 ± 0.2 | 840.7 ± 0.2 | 4.42 ± 0.18 | – | – | –
x1 = 0.161 | – | – | – | – | – | 3.69 ± 0.15 | 3.17 ± 0.13 | 2.74 ± 0.11
x1 = 0.2398 | 881.3 ± 0.2 | 876.3 ± 0.2 | 871.2 ± 0.2 | 866.3 ± 0.2 | 5.33 ± 0.22 | – | – | –
x1 = 0.2402 | – | – | – | – | – | 4.41 ± 0.18 | 3.77 ± 0.15 | 3.31 ± 0.13
x1 = 0.3494 | 916.4 ± 0.2 | 911.3 ± 0.2 | 906.2 ± 0.2 | 901.2 ± 0.2 | 6.94 ± 0.28 | – | – | –
x1 = 0.3498 | – | – | – | – | – | 5.69 ± 0.23 | 4.77 ± 0.19 | 4.25 ± 0.17
x1 = 0.4399 | 944.9 ± 0.2 | 939.8 ± 0.2 | 934.7 ± 0.2 | 929.8 ± 0.2 | 8.61 ± 0.35 | – | – | –
x1 = 0.441 | – | – | – | – | – | 7.03 ± 0.28 | 5.79 ± 0.23 | 5.16 ± 0.21
x1 = 0.5591 | 981.9 ± 0.2 | 977.8 ± 0.2 | 971.9 ± 0.2 | 967.1 ± 0.2 | 11.34 ± 0.46 | – | – | –
x1 = 0.5609 | – | – | – | – | – | 9.25 ± 0.37 | 7.44 ± 0.3 | 6.62 ± 0.27
x1 = 0.6498 | – | – | – | – | – | 11.31 ± 0.46 | 8.98 ± 0.36 | 7.93 ± 0.32
x1 = 0.6501 | 1009.7 ± 0.2 | 1004.9 ± 0.2 | 1000.1 ± 0.2 | 995.4 ± 0.2 | 13.86 ± 0.56 | – | – | –
x1 = 0.7398 | – | – | – | – | – | 13.64 ± 0.55 | 10.74 ± 0.43 | 9.42 ± 0.38
x1 = 0.7399 | 1036.7 ± 0.2 | 1032.3 ± 0.2 | 1027.6 ± 0.2 | 1023.1 ± 0.2 | 16.72 ± 0.68 | – | – | –
x1 = 0.8499 | 1069.2 ± 0.3 | 1065.1 ± 0.3 | 1060.9 ± 0.3 | 1056.8 ± 0.3 | 20.75 ± 0.84 | – | – | –
x1 = 0.8501 | – | – | – | – | – | 16.88 ± 0.68 | 13.24 ± 0.54 | 11.5 ± 0.47
x1 = 0.9399 | 1095.3 ± 0.3 | 1091.7 ± 0.3 | 1087.9 ± 0.3 | 1084.2 ± 0.3 | 24.46 ± 0.99 | – | – | –
x1 = 0.9405 | – | – | – | – | – | 19.8 ± 0.8 | 15.56 ± 0.63 | 13.42 ± 0.54
x1 = 1 | 1112.4 ± 0.3 | 1109.1 ± 0.3 | 1105.6 ± 0.3 | 1102.3 ± 0.3 | 27.15 ± 1.1 | 21.87 ± 0.89 | 17.26 ± 0.7 | 14.81 ± 0.6

CCC(C)O (stereo not drawn) [butan-2-ol] + OCCOCCO
x2 = 0
Conditions | mass density [kg/m3] | viscosity [mPa·s]
298.15 K | 802.7 ± 0.2 | 3.1 ± 0.13
303.15 K | 798.3 ± 0.2 | 2.6 ± 0.11
308.15 K | 793.6 ± 0.2 | 2.15 ± 0.09
313.15 K | 789.1 ± 0.2 | 1.73 ± 0.07

CCCCC(C)O (stereo not drawn) [2-hexanol] + OCCOCCO
Conditions | mass density, 298.15 K [kg/m3] | mass density, 303.15 K [kg/m3] | mass density, 308.15 K [kg/m3] | mass density, 313.15 K [kg/m3] | viscosity, 298.15 K [mPa·s] | viscosity, 303.15 K [mPa·s] | viscosity, 308.15 K [mPa·s] | viscosity, 313.15 K [mPa·s]
x2 = 0 | 810.1 ± 0.2 | 806.1 ± 0.2 | 802.1 ± 0.2 | 798 ± 0.2 | 4.1 ± 0.17 | 3.41 ± 0.14 | 2.82 ± 0.11 | 2.22 ± 0.09
x2 = 0.0809 | 828.8 ± 0.2 | 824.7 ± 0.2 | 820.3 ± 0.2 | 816.1 ± 0.2 | 4.24 ± 0.17 | 3.93 ± 0.16 | 3.13 ± 0.13 | 2.26 ± 0.09
x2 = 0.1597 | 847.7 ± 0.2 | 843.5 ± 0.2 | 839.1 ± 0.2 | 834.7 ± 0.2 | 4.39 ± 0.18 | 4.19 ± 0.17 | 3.38 ± 0.14 | 2.47 ± 0.1
x2 = 0.2398 | 867.8 ± 0.2 | 863.5 ± 0.2 | 858.9 ± 0.2 | 854.4 ± 0.2 | 4.71 ± 0.19 | 4.43 ± 0.18 | 3.66 ± 0.15 | 2.85 ± 0.12
x2 = 0.3501 | 896.9 ± 0.2 | 892.5 ± 0.2 | 887.8 ± 0.2 | 883.1 ± 0.2 | 5.69 ± 0.23 | 5.03 ± 0.2 | 4.24 ± 0.17 | 3.63 ± 0.15
x2 = 0.4398 | 921.9 ± 0.2 | 917.6 ± 0.2 | 912.7 ± 0.2 | 908.2 ± 0.2 | 7.07 ± 0.29 | 5.96 ± 0.24 | 4.99 ± 0.2 | 4.5 ± 0.18
x2 = 0.5602 | 957.6 ± 0.2 | 953.2 ± 0.2 | 948.4 ± 0.2 | 943.7 ± 0.2 | 9.89 ± 0.4 | 8 ± 0.32 | 6.49 ± 0.26 | 5.99 ± 0.24
x2 = 0.6501 | 985.9 ± 0.2 | 981.6 ± 0.2 | 976.9 ± 0.2 | 972.3 ± 0.2 | 12.69 ± 0.51 | 10.16 ± 0.41 | 8.04 ± 0.33 | 7.37 ± 0.3
x2 = 0.7403 | 1015.9 ± 0.3 | 1011.7 ± 0.3 | 1007.2 ± 0.3 | 1002.7 ± 0.2 | 16.04 ± 0.65 | 12.83 ± 0.52 | 9.96 ± 0.4 | 8.96 ± 0.36
x2 = 0.8502 | 1054.8 ± 0.3 | 1050.9 ± 0.3 | 1046.6 ± 0.3 | 1042.5 ± 0.3 | 20.63 ± 0.84 | 16.56 ± 0.67 | 12.76 ± 0.52 | 11.2 ± 0.45
x2 = 0.9398 | 1088.6 ± 0.3 | 1084.9 ± 0.3 | 1081.1 ± 0.3 | 1077.5 ± 0.3 | 24.55 ± 0.99 | 19.77 ± 0.8 | 15.38 ± 0.62 | 13.28 ± 0.54

OCCOCCO [diethylene glycol] + CCCCCC(C)O
x1 = 1
Conditions | mass density [kg/m3] | viscosity [mPa·s]
298.15 K | 1112.4 ± 0.3 | 27.14 ± 1.1
303.15 K | 1109.1 ± 0.3 | 21.87 ± 0.89
308.15 K | 1105.6 ± 0.3 | 17.26 ± 0.7
313.15 K | 1102.3 ± 0.3 | 14.81 ± 0.6
